Earlier results, collected in US20080096864A1, “Treatment Of Gastrointestinal Stromal Tumors With Imatinib And Midostaurin” (priority 2003, published 2008).

System: advanced GIST
Details: GIST patients on imatinib, one study

Cc1ccc(NC(=O)c2ccc(CN3CCN(C)CC3)cc2)cc1Nc1nccc(-c2cccnc2)n1 [imatinib]
primary resistance to imatinib, share of patients: 13.7 % of patients
